# Laboratory results from PMC5708334, “Synthesis of kinase inhibitors containing a pentafluorosulfanyl moiety” (Organic & Biomolecular Chemistry, 2017).
# Columns and labels:
# [1] = biological target: T1, DYRK3 (h) (Homo sapiens, UniProt O43781); assay: Biochemical kinase assay (CEREP); conditions: for IC50: 10 μM ATP, performed by CEREP
# T1 sequence (O43781 1-588): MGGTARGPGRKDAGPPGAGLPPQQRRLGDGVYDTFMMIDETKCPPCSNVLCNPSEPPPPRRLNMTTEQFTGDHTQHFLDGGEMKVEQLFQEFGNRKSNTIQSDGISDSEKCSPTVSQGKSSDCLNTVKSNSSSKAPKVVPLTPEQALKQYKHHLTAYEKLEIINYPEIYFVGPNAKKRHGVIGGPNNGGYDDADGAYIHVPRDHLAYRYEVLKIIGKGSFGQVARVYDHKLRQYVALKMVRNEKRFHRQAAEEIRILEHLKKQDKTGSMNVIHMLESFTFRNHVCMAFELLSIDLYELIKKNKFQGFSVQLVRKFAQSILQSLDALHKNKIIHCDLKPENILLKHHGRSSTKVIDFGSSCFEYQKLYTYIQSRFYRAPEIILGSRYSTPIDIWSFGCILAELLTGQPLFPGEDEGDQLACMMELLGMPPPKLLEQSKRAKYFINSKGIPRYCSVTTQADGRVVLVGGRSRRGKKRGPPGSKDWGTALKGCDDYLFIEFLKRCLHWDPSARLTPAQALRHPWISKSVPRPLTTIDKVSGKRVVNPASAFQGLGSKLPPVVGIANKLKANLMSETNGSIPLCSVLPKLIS
# [2] = biological target: PDGFRα (h) (Homo sapiens, UniProt P16234); assay: Biochemical kinase assay (CEREP); conditions: for IC50: 10 μM ATP, performed by CEREP
# [3] = biological target: FLT-4 (h) (VEGFR3) (Homo sapiens, UniProt P35916); assay: Biochemical kinase assay (CEREP); conditions: for IC50: 10 μM ATP, performed by CEREP
# Method: We tested all synthetic compounds against a panel of kinases in a biochemical assay. Each data point was measured in duplicate (technical replicates). […] Additional kinase binding studies were performed vs. a select group of functionally and structurally divergent kinases including AAK1 (Adaptor-associated protein kinase 1), BMP2K (BMP-2-inducible protein kinase, where BMP is bone morphogenic protein), GAK (Cyclin G-associated kinase) and STK16 (Serine/threonine-protein kinase 16) (Table 1).
# [4] = biological target: STK16 (Serine/threonine-protein kinase 16) (Homo sapiens, UniProt O75716); assay: Kinase binding displacement assay; conditions: no ATP present
# [5] = biological target: T2, GAK (Cyclin G-associated kinase) (Homo sapiens, UniProt O14976); assay: Kinase binding displacement assay; conditions: no ATP present
# T2 sequence (O14976 1-1311): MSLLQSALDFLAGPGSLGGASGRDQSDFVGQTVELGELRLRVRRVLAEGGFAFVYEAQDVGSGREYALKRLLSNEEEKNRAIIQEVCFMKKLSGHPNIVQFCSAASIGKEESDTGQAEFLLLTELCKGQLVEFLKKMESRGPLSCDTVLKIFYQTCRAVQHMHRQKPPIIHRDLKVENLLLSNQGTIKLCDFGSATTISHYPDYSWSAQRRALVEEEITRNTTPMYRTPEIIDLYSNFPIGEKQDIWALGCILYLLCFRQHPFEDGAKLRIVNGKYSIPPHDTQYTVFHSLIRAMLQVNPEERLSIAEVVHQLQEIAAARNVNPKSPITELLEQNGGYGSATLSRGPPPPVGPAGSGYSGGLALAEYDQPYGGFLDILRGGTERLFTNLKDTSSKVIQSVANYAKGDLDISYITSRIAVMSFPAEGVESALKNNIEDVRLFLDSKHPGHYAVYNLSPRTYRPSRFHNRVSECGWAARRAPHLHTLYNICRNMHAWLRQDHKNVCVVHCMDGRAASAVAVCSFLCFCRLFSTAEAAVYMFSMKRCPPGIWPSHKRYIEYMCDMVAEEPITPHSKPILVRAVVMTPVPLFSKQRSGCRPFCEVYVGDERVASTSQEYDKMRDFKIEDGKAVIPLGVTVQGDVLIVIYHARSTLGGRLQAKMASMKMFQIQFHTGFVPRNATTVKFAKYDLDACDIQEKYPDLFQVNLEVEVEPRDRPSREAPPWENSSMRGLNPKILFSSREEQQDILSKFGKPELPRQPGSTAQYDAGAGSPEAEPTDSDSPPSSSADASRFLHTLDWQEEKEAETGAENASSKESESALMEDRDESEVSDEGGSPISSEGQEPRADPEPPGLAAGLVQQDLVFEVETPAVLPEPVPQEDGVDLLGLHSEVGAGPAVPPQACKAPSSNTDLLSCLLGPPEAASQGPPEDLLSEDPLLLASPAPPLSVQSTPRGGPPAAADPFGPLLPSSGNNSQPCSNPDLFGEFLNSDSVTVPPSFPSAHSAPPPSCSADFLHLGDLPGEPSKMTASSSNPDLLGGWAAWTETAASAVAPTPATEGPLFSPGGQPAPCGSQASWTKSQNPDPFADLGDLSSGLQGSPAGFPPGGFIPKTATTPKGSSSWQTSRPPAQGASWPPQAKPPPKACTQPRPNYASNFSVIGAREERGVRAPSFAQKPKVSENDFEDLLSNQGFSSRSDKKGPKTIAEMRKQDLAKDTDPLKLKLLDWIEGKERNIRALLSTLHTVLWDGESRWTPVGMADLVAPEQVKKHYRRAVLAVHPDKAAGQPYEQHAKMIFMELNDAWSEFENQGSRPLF
# [6] = biological target: BMP2K (BMP-2-inducible protein kinase) (Homo sapiens, UniProt Q9NSY1); assay: Kinase binding displacement assay; conditions: no ATP present
# [7] = biological target: AAK1 (Adaptor-associated protein kinase 1) (Homo sapiens, UniProt Q2M2I8); assay: Kinase binding displacement assay; conditions: no ATP present
# [8] = test system: MCF7; assay: Cell proliferation assay; assay type: cell-based; conditions: Homo sapiens, 50% reduction in cellular proliferation vs DMSO-treated control, read-out: GC50 MCF7
# Source text: (§1) The synthesized compounds were next tested in breast cancer and non-transformed breast cell lines.
# [9] = test system: T47D; assay: Cell proliferation assay; assay type: cell-based; conditions: Homo sapiens, 50% reduction in cellular proliferation vs DMSO-treated control, read-out: GC50 T47D
# Source text: as §1
# [10] = test system: MCF7 and T47D breast cancer cell; assay: Cell proliferation assay (range over both lines); assay type: cell-based; conditions: range over both compounds and both cell lines; read-out: GC50 values, MCF7 and T47D (range)
# Source text: as §1
# Chain of FLT-4 (h) (VEGFR3) (P35916 25-1363): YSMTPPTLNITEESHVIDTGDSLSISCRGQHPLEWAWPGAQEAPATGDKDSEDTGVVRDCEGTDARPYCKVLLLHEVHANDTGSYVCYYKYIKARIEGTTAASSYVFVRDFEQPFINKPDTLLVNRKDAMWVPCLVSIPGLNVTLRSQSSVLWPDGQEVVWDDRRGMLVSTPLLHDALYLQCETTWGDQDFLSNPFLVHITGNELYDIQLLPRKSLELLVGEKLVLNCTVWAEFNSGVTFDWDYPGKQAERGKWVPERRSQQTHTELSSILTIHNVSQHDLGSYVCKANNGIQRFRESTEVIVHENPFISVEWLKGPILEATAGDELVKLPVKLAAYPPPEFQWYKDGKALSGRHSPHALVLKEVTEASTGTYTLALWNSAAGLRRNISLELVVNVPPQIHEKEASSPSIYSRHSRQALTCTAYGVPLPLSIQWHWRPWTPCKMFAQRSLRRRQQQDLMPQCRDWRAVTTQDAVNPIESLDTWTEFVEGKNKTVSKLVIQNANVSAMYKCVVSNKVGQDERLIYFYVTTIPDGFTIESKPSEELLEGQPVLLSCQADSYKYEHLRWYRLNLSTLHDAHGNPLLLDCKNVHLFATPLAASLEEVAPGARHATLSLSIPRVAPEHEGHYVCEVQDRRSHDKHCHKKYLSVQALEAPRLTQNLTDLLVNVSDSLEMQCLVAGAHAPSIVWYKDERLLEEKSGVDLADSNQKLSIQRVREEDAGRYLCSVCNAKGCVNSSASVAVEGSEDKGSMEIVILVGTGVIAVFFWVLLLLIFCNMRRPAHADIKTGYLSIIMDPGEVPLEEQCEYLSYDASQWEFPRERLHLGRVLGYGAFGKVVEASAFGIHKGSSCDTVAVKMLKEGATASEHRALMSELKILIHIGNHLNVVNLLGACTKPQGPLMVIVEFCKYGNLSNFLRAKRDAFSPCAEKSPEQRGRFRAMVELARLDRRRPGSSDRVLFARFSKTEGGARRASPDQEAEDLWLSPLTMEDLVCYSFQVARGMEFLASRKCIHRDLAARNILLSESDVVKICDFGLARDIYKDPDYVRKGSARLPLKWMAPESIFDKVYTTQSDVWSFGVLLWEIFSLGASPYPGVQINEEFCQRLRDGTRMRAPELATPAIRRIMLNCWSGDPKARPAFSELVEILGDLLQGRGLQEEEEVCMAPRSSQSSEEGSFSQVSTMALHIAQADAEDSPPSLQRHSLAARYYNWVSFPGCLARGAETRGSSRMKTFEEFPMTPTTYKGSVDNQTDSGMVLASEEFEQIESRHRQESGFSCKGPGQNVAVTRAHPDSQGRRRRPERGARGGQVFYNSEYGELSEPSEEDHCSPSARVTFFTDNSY
# Chain of AAK1 (Adaptor-associated protein kinase 1) (Q2M2I8 whole entry, species assumed): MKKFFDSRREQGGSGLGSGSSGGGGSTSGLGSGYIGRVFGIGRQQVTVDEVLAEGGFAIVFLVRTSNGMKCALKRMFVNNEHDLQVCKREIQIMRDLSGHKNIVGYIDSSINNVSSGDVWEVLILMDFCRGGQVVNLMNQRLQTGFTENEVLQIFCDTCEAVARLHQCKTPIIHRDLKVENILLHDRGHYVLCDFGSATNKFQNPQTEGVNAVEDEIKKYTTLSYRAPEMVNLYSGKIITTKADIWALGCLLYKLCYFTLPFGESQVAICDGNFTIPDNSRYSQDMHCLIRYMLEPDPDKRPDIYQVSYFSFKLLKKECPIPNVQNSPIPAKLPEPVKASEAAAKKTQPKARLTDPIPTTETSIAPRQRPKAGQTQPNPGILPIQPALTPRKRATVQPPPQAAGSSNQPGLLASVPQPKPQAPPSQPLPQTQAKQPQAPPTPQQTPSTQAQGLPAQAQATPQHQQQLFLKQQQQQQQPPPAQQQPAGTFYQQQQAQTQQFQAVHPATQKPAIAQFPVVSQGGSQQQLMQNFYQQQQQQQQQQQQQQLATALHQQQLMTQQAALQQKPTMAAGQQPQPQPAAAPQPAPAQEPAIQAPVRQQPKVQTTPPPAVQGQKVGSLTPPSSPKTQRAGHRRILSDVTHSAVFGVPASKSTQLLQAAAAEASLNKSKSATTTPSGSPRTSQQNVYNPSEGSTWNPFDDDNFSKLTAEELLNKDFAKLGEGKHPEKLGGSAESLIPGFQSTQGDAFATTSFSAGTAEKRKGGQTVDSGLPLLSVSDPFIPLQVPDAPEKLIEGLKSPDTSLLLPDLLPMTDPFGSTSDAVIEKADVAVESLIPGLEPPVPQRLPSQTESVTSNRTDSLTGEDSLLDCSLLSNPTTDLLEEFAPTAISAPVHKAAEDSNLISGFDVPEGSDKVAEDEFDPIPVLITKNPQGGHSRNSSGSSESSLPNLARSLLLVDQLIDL
# Chain of STK16 (Serine/threonine-protein kinase 16) (O75716 whole entry, species assumed): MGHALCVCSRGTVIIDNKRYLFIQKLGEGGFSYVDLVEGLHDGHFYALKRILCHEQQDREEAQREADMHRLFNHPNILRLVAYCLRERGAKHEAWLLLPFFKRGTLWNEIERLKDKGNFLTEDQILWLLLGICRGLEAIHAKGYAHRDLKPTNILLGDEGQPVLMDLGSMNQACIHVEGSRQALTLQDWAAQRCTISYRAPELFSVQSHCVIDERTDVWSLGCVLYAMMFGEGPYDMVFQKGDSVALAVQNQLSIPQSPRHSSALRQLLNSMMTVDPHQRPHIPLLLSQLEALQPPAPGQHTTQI
# Chain of PDGFRα (h) (P16234 24-1089): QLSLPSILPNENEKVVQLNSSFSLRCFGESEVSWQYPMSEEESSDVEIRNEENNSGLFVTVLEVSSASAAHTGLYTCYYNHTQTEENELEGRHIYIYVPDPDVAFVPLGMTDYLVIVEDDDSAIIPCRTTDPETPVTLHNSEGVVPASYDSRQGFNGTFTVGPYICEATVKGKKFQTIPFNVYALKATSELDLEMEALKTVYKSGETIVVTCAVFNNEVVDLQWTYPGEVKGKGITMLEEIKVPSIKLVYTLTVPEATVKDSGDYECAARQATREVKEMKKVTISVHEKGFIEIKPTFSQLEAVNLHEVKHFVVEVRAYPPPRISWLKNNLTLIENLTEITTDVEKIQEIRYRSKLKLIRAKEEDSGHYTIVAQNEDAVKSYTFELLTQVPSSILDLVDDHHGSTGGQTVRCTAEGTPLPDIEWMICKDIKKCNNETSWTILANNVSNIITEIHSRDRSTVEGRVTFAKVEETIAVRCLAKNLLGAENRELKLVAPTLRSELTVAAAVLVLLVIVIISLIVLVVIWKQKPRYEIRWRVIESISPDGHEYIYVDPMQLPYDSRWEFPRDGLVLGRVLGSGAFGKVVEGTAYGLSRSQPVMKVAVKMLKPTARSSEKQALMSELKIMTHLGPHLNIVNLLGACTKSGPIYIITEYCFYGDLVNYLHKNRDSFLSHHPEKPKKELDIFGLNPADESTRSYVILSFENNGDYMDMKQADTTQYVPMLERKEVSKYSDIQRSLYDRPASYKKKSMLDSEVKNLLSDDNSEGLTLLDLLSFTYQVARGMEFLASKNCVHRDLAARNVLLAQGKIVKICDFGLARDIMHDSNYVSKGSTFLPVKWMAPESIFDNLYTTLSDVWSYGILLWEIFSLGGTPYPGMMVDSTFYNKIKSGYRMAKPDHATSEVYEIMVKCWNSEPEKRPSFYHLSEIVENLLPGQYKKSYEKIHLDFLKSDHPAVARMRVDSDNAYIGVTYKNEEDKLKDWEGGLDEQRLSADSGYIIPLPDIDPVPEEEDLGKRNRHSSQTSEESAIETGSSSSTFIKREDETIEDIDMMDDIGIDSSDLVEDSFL
# Chain of BMP2K (BMP-2-inducible protein kinase) (Q9NSY1 whole entry, species assumed): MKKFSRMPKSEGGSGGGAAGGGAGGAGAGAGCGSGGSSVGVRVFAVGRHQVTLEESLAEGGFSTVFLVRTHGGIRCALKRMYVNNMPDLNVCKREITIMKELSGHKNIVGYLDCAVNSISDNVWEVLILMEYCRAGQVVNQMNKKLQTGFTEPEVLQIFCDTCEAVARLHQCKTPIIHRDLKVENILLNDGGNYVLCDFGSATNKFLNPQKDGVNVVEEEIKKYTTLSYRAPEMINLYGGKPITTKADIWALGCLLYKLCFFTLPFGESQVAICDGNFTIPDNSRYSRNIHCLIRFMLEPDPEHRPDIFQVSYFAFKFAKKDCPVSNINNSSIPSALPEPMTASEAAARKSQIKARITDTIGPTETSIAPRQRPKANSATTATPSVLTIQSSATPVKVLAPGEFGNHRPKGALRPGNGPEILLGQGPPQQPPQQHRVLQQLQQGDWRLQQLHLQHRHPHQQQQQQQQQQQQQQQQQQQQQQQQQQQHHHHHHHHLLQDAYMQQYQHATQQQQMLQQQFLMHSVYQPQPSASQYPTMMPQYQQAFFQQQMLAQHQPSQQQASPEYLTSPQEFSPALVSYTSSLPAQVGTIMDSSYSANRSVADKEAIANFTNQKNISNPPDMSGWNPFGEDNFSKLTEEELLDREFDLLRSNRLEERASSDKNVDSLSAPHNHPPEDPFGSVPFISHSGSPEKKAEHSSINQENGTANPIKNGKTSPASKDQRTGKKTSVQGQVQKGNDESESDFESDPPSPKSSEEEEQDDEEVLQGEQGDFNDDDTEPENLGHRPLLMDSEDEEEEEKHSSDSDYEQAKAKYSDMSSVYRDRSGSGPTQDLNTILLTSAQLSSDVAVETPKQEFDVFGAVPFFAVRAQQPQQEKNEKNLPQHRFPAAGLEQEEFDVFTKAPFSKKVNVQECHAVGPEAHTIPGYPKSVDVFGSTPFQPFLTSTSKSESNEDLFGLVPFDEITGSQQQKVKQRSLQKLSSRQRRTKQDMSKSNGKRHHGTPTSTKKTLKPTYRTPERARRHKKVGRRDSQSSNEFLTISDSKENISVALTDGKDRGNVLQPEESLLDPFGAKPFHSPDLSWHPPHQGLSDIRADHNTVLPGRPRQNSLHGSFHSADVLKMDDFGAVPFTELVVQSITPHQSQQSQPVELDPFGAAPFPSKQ
inhibition of DYRK3 [1],IC50 [1],IC50 [2],IC50 [3],IC50 [4],IC50 [5],IC50 [6],IC50 [7],IC50 vs. PDGFRα [2],IC50 vs. VEGFR3 [3],potency vs. PDGFRα [2],IC50 [8],IC50 [9],IC50 [10],Compound
low micromolar range,1.7 µM,> 1 µM,> 1 µM,,,,,,,,,,,5-Pentafluorosulfanyl-3-ferrocenylindolin-2-one [Compound 12a]
,> 1 µM,0.0031 µM,0.018 µM,> 1 µM,> 1 µM,> 1 µM,> 1 µM,low nM potency,low nM potency,,,,,"Cc1[nH]c(/C=C2\C(=O)Nc3cc(S(F)(F)(F)(F)F)ccc32)c(C)c1CCC(=O)O [Compound 14, (Z)-3-(2,4-Dimethyl-5-((6-pentafluorosulfanyl-2-oxoindolin-3-ylidene)methyl)-1H-pyrrol-3-yl)propanoic acid]"
low micromolar range,2.4 µM,> 1 µM,> 1 µM,,,,,,,,,,,5-Pentafluorosulfanyl-3-ferrocenylindolin-2-one [Compound 12b]
,> 1 µM,0.098 µM,0.23 µM,135 µM,0.476 µM,187 µM,1000 µM,,,0.098 µM,0.69 ± 0.4 µM,0.35 ± 0.1 µM,0.35 to 3.8 µM,"O=C1Nc2cc(S(F)(F)(F)(F)F)ccc2/C1=C/c1ccc[nH]1 [Compound 11, (Z)-3-(1H-Pyrrol-2-yl)methylene-6-pentafluorosulfanylindoline-2-one]"
,> 1 µM,> 1 µM,> 1 µM,17.6 µM,34.2 µM,0.452 µM,1 µM,,,,4.8 ± 1 µM,0.49 ± 0.4 µM,0.35 to 3.8 µM,"O=C1Nc2ccc(S(F)(F)(F)(F)F)cc2/C1=C/c1ccc[nH]1 [Compound 10, (Z)-3-(1H-Pyrrol-2-yl)methylene-5-pentafluorosulfanylindoline-2-one]"
,> 1 µM,> 1 µM,0.53 µM,> 1 µM,> 1 µM,> 1 µM,> 1 µM,,,,,,,"Cc1[nH]c(/C=C2\C(=O)Nc3ccc(S(F)(F)(F)(F)F)cc32)c(C)c1CCC(=O)O [Compound 13, (Z)-3-(2,4-Dimethyl-5-((5-pentafluorosulfanyl-2-oxoindolin-3-ylidene)methyl)-1H-pyrrol-3-yl)propanoic acid]"
